The values below come from patent US6593365B1, “Diflunisal esters and related compounds” (The University of Queensland, priority 1997, dated 2003).

Several values for one entry are separate records, joined by “and”; a condition that tells them apart may be missing. Equal values may be shown once. Read-outs that look alike come from different tables or passages of the source.

The target of data set [1] is T1, BSA (bovine serum albumin) (Bos taurus, UniProt P02769).
T1 construct: BSA (bovine serum albumin, fraction V, Sigma); purchased Sigma; host or cells: bovine serum (fraction V)
T1 sequence (P02769 25-607): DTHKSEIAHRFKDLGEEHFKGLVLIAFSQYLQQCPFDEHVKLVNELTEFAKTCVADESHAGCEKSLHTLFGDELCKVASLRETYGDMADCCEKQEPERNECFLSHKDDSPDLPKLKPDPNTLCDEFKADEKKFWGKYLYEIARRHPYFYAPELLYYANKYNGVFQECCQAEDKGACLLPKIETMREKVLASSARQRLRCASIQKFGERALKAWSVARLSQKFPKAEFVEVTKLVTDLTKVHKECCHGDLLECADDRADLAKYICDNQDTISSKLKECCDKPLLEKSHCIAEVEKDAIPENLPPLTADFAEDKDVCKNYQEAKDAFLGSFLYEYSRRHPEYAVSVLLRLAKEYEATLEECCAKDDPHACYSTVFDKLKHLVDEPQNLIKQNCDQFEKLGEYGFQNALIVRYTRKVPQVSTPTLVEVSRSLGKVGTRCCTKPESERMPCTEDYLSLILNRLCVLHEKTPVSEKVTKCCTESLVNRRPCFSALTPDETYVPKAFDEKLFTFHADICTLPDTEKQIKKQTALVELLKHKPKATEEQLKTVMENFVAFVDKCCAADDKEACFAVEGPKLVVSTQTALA
The experiment in a line: Protein binding by ultrafiltration in 2% BSA Krebs buffer. The class given is in vitro ADME. To be noted: 2% BSA Krebs-Henseleit buffer pH 7.4, 37° C.; slope of Scatchard plot. The protocol:
These experiments were carried out in Krebs-Henseleit buffer containing 2% w/v BSA (pH 7.4) and incubated at 37° C. for 30 minutes.
A known concentration of the ethanolic (≲1%) aspirin analogue or diflunisal ester stock solution was added to the 2% BSA Krebs solution to make final concentrations of 125 μM, 250 μM and 500 μM.
The unbound fraction (fu) of parent drug and its hydrolysis product were investigated using ultra-filtration: A 1.0 mL aliquot sample (in triplicate) was placed in a ultrafiltration tube (MPS-1, micro-partition system, Amicon) and centrifuged at 3000 g for 10 minutes. The ultra-filtrate was then assayed for parent drug and its hydrolysis product by HPLC.
To eliminate possible errors caused by hydrolysis, identical samples were placed in normal tubes and subjected to the same procedure. This control group (also in triplicate) was used to adjust for the percentage of hydrolysis in the ultra-filtrate under the experimental conditions.
The fu was determined as the ratio of the free concentration to total concentration of solutes. The binding constant (K) was determined from the slope of a Scatchard plot using following equation:
[Db]/[D]=−K[Db]vK[Pt] (3)
where [Db] is the concentration of bound drug, [D] is the concentration of drug, [Pt] is the concentration of total protein, and v is the number of independent binding sites available. This equation is plotted as the ratio [Db]/[D] versus [Db] and in this way the binding constant (K) is determined from the slope while vK[Pt] is determined from the intercept (Martin, 1983).

Data set [2] can be described thus: Intrinsic (maximum) solubility in water at pH 1.5. In kind it is physicochemical. Conditions: 25 °C, pH 1.5, simulated gastric fluid. The protocol:
The pH conditions were chosen to ensure that the solubility of the unionised species was estimated. […] Lea & Febiger/Philadelphia. […] […] The solvent (9.9 mL) was then added to the test tube. […] The test tube was sonicated for 15 minutes and centrifuged for 10 minutes (3000 g at 25° C.). An aliquot was filtered (Minisart 0.45 μm filter, Satorius) and diluted with HPLC mobile phase, then assayed. The tube was stored carefully in a 25° C. water bath after sampling and the remaining suspension was again sonicated and the process repeated 7 times at four hourly intervals. In these assays, standard curves were prepared by directly dissolving the esters in mobile phase. Concentrations for standard curves ranged from 1-50 μg/mL for all compounds. Furthermore, a manual injector (Waters Model U6K) was used (20 μL sample loop) which ensured that 20 μL was consistently injected onto the column and precluded the need for an internal standard.

Data set [3] is described as follows: In vitro non-enzymatic hydrolysis in Krebs-Henseleit buffer. In kind it is physicochemical. Conditions: for Hydrolysis rate constant (k): pH 7.4, 25° C., n=5; for half-life: pH 7.4. How it is done: These experiments were carried out both in Krebs-Henseleit buffer containing either no protein or 2% w/v BSA (bovine serum albumin, fraction V, Sigma) at pH 7.4 and 25±1° C.
Solutions of the derivatives in Krebs buffer (10 mL) was prepared in siliconised glass tubes. Each solution was sonicated for 5 minutes and centrifuged for 5 minutes (3000 g) at 25° C. to ensure maximum dissolution and to sediment any undissolved precipitate. About 7.5 mL of the supernatant was then transferred to a clean siliconised test tube and a 100 μL aliquot was removed and assayed. […] The rate of non-enzymatic hydrolysis (k) for each derivative was then estimated using the following equation: […]
where C1 is the concentration of the ester at any time (t), and C0 is the concentration of the ester at time zero. The half-life (t½) was determined using the formula: […]

In data set [4] the test system is human platelet rich plasma. As to the kind of experiment: Platelet aggregation induced by arachidonic acid. The class given is cell-based. Conditions: compound 600 µM, 37° C., arachidonic acid 200 µM. How it is done:
Platelet aggregation studies were carried out using a single channel Lumiaggregometer (Chrono-Log Company, Haverton, Pa.) at 37° C. using human platelet-rich and platelet-poor plasma. Platelet-rich plasma (PRP) with a platelet concentration of […] (measured with a Coulter counter) was prepared by centrifuging 3.8% citrated […] (1:9) at 1,500 rpm using a (Beckman) benchtop centrifuge at room temperature for 15 minutes. Platelet-poor plasma (PPP) was prepared by further centrifuging residual blood from platelet-rich plasma at 3,000 rpm for 30 minutes. Platelet-poor plasma was also confirmed b y Coulter counting for platelet content.
Platelet aggregation studies were preceded by pipetting 0.4 mL platelet-rich plasma into a stirred aggregometer tube and calibrate to 90% of recorder. Platelet-poor plasma was set to calibrate at 10% of recorder. Platelet aggregation was initiated by the addition of a arachidonic acid (Sigma) or ADP (Sigma).
10 mM solutions of each compound (TABLE 6) were prepared in 1 mL of normal saline solution (containing 4% BSA) before use. An aliquot (400 μL) of platelet-rich plasma was pipetted into a stirred aggregometer tube at 37° C. and 30 μL of test sample added simultaneously. This mixture was preincubated for varying period (3 to 45 minutes), then arachidonic acid (AA) was added (final conc.=200 μM) to initiate platelet aggregation. If no aggregation occurred, 20 μM ADP was added to confirm the vitality of the platelets (if the platelets are vital, ADP will induce this AA-test sample-plasma mixture to aggregate). This procedure is necessary to investigate whether the non-aggregation phenomenon is due to drug inhibition or simply due to inviable platelets (unable to respond to AA). The degree of aggregation was measure by calculating the area under the turbidimetric response curve (AUC).

For orientation: solubility means how much of the substance goes into solution per volume.

Take `CCCCCCCC(=O)Oc1ccccc1C(=O)O` [Compound C8SA, n-octanoylsalicylic acid]: the “Protein binding constant (K)” value in data set [1] was 13978 L/mol. The solubility in data set [2] is 2 µg/mL and 8 µM. The “Hydrolysis rate constant (k)” value came to 0.0051 ± 0.0031 hour^1 in data set [3] (Krebs-Henseleit buffer 0% BSA, U = Undetectable) and 0.0010 ± 0.0004 hour^1 in data set [3] (Krebs-Henseleit buffer 2% BSA). The half-life in data set [3] (Krebs-Henseleit buffer with 2% w/v BSA, 2% BSA Krebs buffer, read-out: Half-life (converted)) was approximately 30 days; in data set [3] (bovine, Krebs-Henseleit buffer with 2% w/v BSA, read-out: Half life (t1/2) (converted)), 28.9 days; in data set [3] (protein-free Krebs-Henseleit buffer, Krebs-Henseleit buffer 0% BSA, first half life, t1/2=0.693/k, U = Undetectable, read-out: Half life (t1/2) (converted)), 5.66 days. Besides, the “Platelet Aggregation (% of control)” value in data set [4] (preincubation 3 minutes) is reported as 95.4 ± 2.1 % of control; in data set [4] (preincubation 5 minutes) it was 92.4 ± 0.1 % of control; in data set [4] (preincubation 8 minutes), 87.3 ± 3.3 % of control; in data set [4] (preincubation 10 minutes) it was 67.5 ± 2.7 % of control; in data set [4] (preincubation 12 minutes), 27.3 ± 0.2 % of control; in data set [4] (preincubation 15 minutes) it was 0 % of control. Besides, the “Platelet Aggregation (% of control)” value in data set [4] (preincubation 20 minutes), in data set [4] (preincubation 25 minutes) and in data set [4] (preincubation 45 minutes) was 0 % of control throughout.
